Literature values in patent publication US20240099974A1, “TREATMENT AGENT” (FUJIFILM Corporation, priority 2021, published 2024).

Conditions: iv; Mould et al., 2002, Ait-Oudhia, Mager and Straubinger 2014

Question: For `CC[C@@]1(O)C(=O)OCc2c1cc1n(c2=O)Cc2cc3c(CN(C)C)c(O)ccc3nc2-1` [topotecan], which “clearance in a case where topotecan is intravenously administered” value is on record?
Answer: Its value is 18.6 L/h.
